Earlier results as cited in PMC3836577 (Microbial Biotechnology, 2010).
Ends that are not written are not given here.

System: S. aureus Sa113
Conditions: literature value for comparison; ref Peschel et al., 2001

## nisin (ITSISLCTPGCKTGALMGCNMKTATCHCSIHVSK; also: lantibiotic thioether rings and dehydrated residues not placed; UniProt P13068 24-57, looked up)
  Activity against Sa113 (MIC): 14 µM
